# Experimental data as given in article PMC9034380 (RSC Advances, 2021).
# What was measured:
# Type in all cases: cell-based
# [1] = tested on: Hh signaling pathway; experiment: Gli-luciferase; conditions: for IC50: read-out: Gli-luc reporter IC50
# [2] = target: Smo (Homo sapiens, UniProt Q99835); experiment: Smo ciliary localization in NIH3T3 cells expressing Smo treated with Shh
# [3] = target: wild-type Smo (Mus musculus, UniProt P56726); experiment: Gli-Luc reporter assay in NIH3T3-Gli-Luc cells overexpressing wild-type Smo
# wild-type Smo, sequence (P56726 33-793): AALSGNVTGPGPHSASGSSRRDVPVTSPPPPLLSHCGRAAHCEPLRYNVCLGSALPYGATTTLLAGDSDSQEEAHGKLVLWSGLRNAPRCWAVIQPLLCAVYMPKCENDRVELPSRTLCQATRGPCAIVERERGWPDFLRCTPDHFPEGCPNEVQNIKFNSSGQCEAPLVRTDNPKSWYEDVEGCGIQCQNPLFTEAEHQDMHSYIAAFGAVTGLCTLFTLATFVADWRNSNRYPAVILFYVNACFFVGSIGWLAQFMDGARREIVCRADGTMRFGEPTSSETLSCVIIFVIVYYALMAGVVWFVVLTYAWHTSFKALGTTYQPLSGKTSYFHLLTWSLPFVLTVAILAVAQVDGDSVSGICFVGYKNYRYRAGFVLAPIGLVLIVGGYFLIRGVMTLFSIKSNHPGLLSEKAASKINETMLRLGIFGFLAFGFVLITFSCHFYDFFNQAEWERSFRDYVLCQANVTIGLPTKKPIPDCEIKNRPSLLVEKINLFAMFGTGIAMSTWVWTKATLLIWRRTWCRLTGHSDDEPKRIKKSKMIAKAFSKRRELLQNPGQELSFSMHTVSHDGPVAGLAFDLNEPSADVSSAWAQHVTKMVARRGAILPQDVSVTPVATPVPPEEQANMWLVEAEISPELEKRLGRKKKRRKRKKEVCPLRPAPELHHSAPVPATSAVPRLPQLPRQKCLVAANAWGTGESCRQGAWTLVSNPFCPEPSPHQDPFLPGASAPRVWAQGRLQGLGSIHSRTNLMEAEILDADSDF
# [4] = target: Smo D477G (Mus musculus, UniProt P56726, D477G); experiment: Gli-Luc reporter assay in NIH3T3-Gli-Luc cells overexpressing Smo D477G
# Smo D477G, sequence (P56726 33-793 D477G): as the sequence (P56726 33-793) above, with D445G counted along it
# [5] = tested on: Daoy cells; experiment: Cell proliferation; conditions: Homo sapiens, 48 h, read-out: cell viability
# Smo, sequence (Q99835 28-787): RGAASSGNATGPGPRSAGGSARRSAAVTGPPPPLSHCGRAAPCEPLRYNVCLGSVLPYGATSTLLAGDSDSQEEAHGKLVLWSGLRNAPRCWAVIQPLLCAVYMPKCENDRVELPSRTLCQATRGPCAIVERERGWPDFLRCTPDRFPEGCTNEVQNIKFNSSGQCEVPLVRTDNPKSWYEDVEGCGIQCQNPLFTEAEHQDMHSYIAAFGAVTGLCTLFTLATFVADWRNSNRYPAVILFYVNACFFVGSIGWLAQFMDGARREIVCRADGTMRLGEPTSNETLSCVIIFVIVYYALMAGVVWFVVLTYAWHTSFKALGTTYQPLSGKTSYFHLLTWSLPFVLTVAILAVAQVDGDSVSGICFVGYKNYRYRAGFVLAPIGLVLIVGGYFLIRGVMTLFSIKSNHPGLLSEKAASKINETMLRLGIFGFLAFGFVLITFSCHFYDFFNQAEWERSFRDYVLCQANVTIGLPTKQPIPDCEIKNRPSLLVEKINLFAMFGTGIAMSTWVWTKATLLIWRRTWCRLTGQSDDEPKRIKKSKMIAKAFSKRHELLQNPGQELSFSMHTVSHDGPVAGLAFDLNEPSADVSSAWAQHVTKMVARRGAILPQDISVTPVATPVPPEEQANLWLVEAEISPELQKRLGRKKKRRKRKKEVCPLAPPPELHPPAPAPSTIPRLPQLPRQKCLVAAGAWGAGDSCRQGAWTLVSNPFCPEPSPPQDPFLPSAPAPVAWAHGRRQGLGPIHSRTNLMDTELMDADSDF
IC50 [1],SMILES,further results
30 ± 10 nM,COc1cc(NC(=O)c2cccnc2Cl)ccc1C(=O)Nc1ccc(Cl)c(-c2ncc(-c3ccccc3)[nH]2)c1 [Compound 21],"Smo ciliary translocation [2]: sharp drop; IC50 [3]: 39 nM; potency compared to compound 3 ([1]; Gli-luc reporter, fold higher than compound 3): 6 fold; IC50 [4]: 96 nM; Hh pathway inhibition in mutant D477G ([4]; NIH3T3-Gli-Luc cells overexpressing Smo D477G): slightly decreased; shift in IC50, mutant D477G vs WT ([4]; Smo D477G vs wild-type Smo): 2.4 fold; viability at 1 µM [5]: 72%; viability at 10 µM [5]: 43%"
70 ± 20 nM,COc1cc(NC(=O)c2cccnc2)ccc1C(=O)Nc1ccc(Cl)c(-c2ncc(-c3ccccc3)[nH]2)c1 [Compound 23],
150 ± 80 nM,COc1cc(NC(=O)c2ccc(Cl)nc2)ccc1C(=O)Nc1ccc(Cl)c(-c2ncc(-c3ccccc3)[nH]2)c1 [Compound 22],

# Second part, the molecule before the results:
SMILES,IC50 [1],further results
COc1cc(NC(=O)c2ccccc2Cl)ccc1C(=O)Nc1ccc(Cl)c(-c2ncc(-c3ccccc3)[nH]2)c1 [Compound 17],120 ± 60 nM,
"CS(=O)(=O)c1ccc(C(=O)Nc2ccc(Cl)c(-c3ccccn3)c2)c(Cl)c1 [Compound 1, vismodegib, reference compound]",20 ± 10 nM,
COc1cc(NC(=O)c2cccnc2Cl)ccc1C(=O)Nc1ccc(Cl)c(-c2nc3ccccc3[nH]2)c1 [Compound 14],50 ± 20 nM,
COc1cc(NC(=O)c2ccc(F)cc2)ccc1C(=O)Nc1ccc(Cl)c(-c2ncc(-c3ccccc3)[nH]2)c1 [Compound 20],250 ± 40 nM,
COc1cc(NC(=O)c2cccnc2)ccc1C(=O)Nc1ccc(Cl)c(-c2nc3ccccc3[nH]2)c1 [Compound 16],80 ± 20 nM,
COc1cc(NC(=O)c2ccc(Cl)cc2Cl)ccc1C(=O)Nc1ccc(Cl)c(-c2ncc(-c3ccccc3)[nH]2)c1 [Compound 18],260 ± 80 nM,loss of potency vs compound 17 ([1]; Gli-luc IC50 ratio to compound 17): 2.2 fold
